Measured values taken from US20220339116A1, “LIPID NANOPARTICLES AS ORAL VEHICLES OF IMMUNOTHERAPY” (The Johns Hopkins University, priority 2019, published 2022).

Legend:
Treg cells = experiment: T cell CFSE-Proliferation-Assay of Treg suppressive activity; type: cell-based; details: Treg at 2:1 or 4:1 T cell to Treg ratio; Tofa at 0.5 or 1 μM
Method: FIG. 3. […] Results of CFSE-Proliferation-Assay conducted with the addition of Treg cells (at either 2:1 or 4:1 T cell to Treg ratio) and Tofa (at 0.5 or 1 μM). Values are normalized to the extent of proliferation measured with no Treg.

NOD mice = experiment: Diabetes onset in NOD mice after oral gavage; type: in vivo, mouse; details: amount identical to that used in Tofa-NLC; ongoing group
Description: FIG. 13. Oral administration of Tofa-NLC delays diabetes onset. We tested the effect of Tofa-NLC administration via oral gavage to two treatment groups: 1) 3 week-old NOD mice (corresponding to Pre-stage 1 in human patients) and 2) 10 week-old NOD mice (corresponding to advanced Stage 1 in human patients).
All these characteristics indicate that LNp would be a most valuable delivery system for the tissue selective actuation of a combination immunotherapy. We then began to define the effects of a transient administration of Tofa-NLC on diabetes development in NOD mice. […] We then tested the effect of Tofa-NLC administration via oral gavage to two treatment groups: 1) 3 week-old NOD mice (corresponding to Pre-stage 1 in human patients) and 2) 10 week-old NOD mice (corresponding to advanced Stage 1 in human patients). […] In particular, oral administration to 3-week-old NOD mice prevented onset of disease in 70% of the animals for more than 40 weeks.

[1] = test system: bone marrow derived dendritic cells (DC); experiment: DC maturation in response to LPS with soluble Tofa (flow cytometry, ELISA); type: cell-based, mouse
Method: FIGS. 2A-2B. Jak inhibition impacts APC maturation. 2A, Representative graphs of surface expression of maturation markers on DC left untreated or exposed overnight to LPS+/−Tofa. 2B, Supernatants from DC cultures were tested for accumulation of the indicated cytokines by ELISA. n=3.
The latter two have been implicated in T1D development and inhibition of their accumulation would be a valuable effect.

[2] = cited from earlier work

| Substance | suppressive activity of Treg (Treg cells) | therapeutic effect on diabetes development (NOD mice) | release of inflammatory cytokines IL-6, IL-1, TNF-α ([1]; DC culture supernatants, ELISA) | up-regulation of CD80 and CD86 costimulatory molecules ([1]; DC exposed to LPS +/- Tofa) | up-regulation of MHC-II molecules ([1]; DC exposed to LPS +/- Tofa) | Solubility in Dimethyl Sulfoxide [2] [mg/mL] |
| --- | --- | --- | --- | --- | --- | --- |
| Tofacitinib | preservation of regulatory activity | inferior (if not absent) therapeutic effect | reduction in release of the prototypical inflammatory cytokines | significant inhibition of the up-regulation of CD80 and CD86 costimulatory molecules | did not prevent the up-regulation of MHC-II molecules |  |
| Filgotinib |  |  |  |  |  | 85 |
